# Entries after “also recorded” stand apart in the source; their conditions may differ. Where two headings read alike, the source gives them in different places.
# Legend:
# U87-MG cells = assay: Cell viability / gliotoxicity in U87-MG; type: cell-based
# Procedure: (§1) Cells were treated for 48 hours accordingly to axis labels. At the end of the incubation time cells were prepared for the assay according to the manufacturer instructions. Luminescence values were then converted to % of survival.
# (§2) Cells were treated for 48 h with the indicated concentrations of the agents. Astrocytes death was limited to 30% or lower. Suprisingly, C6 death was 3 folds higher than in astrocytes at 24 h and increased at 5 folds at 48 h. Data in U78-MG are similar to the C6 data although the effect was slightly lower but always at least 2 to 4 folds the effect seen in astrocytes.
# In order to verify how the hypersensitivity of this signaling pathway in glioma cells affects the survival of the cells, viability assessments were performed using at least three unrelated biochemical tests. Initially, a commercially available kit (Cell Titer Glow) was used in the high throughput screening center for cytotoxicity screening. This test is amenable to high throughput screening techniques and, therefore, can be used for follow up of selected compounds in high or medium throughput settings. […] Since, THAP inhibits SERCA, an ATPase, and it can affect ATP levels directly the effect of THAP and TUN on these 3 cells types was also assessed using a commercially available kit that assesses metatetrazolium salts conversion (XTT). XTT assesses cell viability by probing mitochondrial integrity. […] Finally, viability of U87-MG was also assessed using a system measuring the activity of a house keeping cytosolic enzyme involved in glucose metabolism. Also using this detection system it was evident that glioma cells both C6 and U87-MG were greatly affected by induction of ERSR (FIG. 13). It is well known that prolonged ERSR leads to apoptosis, even in the presence of elevated GRP78 expression if that is coupled to significant protein unfolding. In rat cells this process is actuated via caspase 12 and ultimately via caspase 3 activation. […]
# GRP78 promoter = assay: GRP78-luc reporter assay in stably transfected U87-MG clone A5; type: cell-based, human; settings: for GRP78 promoter driven luciferase (GRP78-luc) expression: result in words
# Procedure: The promoter region contains the sequence of the GRP78 promoter from −139 to +7. In this part of the promoter there are three ER stress responsive elements and the TATA box to which is linked in frame the firefly luciferase sequence.
# Compounds were plated in half area 96 well plates at the final concentration of 2 μM in 5 μl of media. Cells were added in 45 μl afterwards at the density of 5000/well. Plates were read after 16 h in an Envision high efficiency plate reader. Results are represented as a plate layout in which different shadings indicate the different rows and the number indicate the different lines. As a standard negative and positive controls were located in the outer columns.
# A construct coding a large part of the human GRP78 promoter, attached to the reporter gene firefly luciferase was used (see FIG. 16 for a schematic) (Yoshida et al., 1998).
# The promoter region contains the sequence of the GRP78 promoter from −139 to +7. In this part of the promoter there are three ER stress responsive elements and the TATA box to which is linked in frame the firefly luciferase sequence (FIG. 16)(Yoshida et al., 1998). The construct, which was cloned in an expression vector, was transfected into E. Coli, amplified, purified and checked it by enzymatic digestion. Thereafter, C6 and U87-MG were transiently transfected with the plasmid. After 24 hours the cells were challenged with THAP and TUN for 24 hours. Although, in transient transfection only a small part of the cell population expresses the transduced gene, a significant induction by THAP and TUN was detected over 24 hours. Armed with these encouraging data human glioma cells U87-MG were transfected with both the above described construct and a construct carrying resistance to blasticidin. The sensitivity of these cells to the antibiotic has previously been assessed. 24 hours after the transfection the antibiotic at its 75% inhibitory concentration was added. The cells were given time to proliferate. Two pools called P2 and P5 were selected and luciferase expression was assessed. […] Clones from these two pools were isolated. Luciferase expression in the clones was characterized and a clone called A5, in which baseline expression of the construct was reasonably low and induction with two positive controls was large and consistent, was selected. This clone, several back up clones, and the pools were amplified and frozen in sufficient amounts to guarantee continuity in case needed. Next, the effect of the incubation time on luciferase induction was assessed. Since this assay can be affected by false negative due to toxicity of hit compounds, the incubation times were kept as short as possible. Therefore, several incubation times were tested, including 8, 16 and 24 h. The goal was not to incubate longer than 24 hours because toxicity starts to develop at that time point. […] At this time point the induction is about 6-7 fold. Previously, using a different assay, a half a million compound library was screened very easily using 2.5 thousands cells per well in 1536 plates. […] With this cell number the dynamic range is large and the fold of induction of 6-7 is maintained.
# It is common practice in the field of high throughput screening to assess the so called z number of the assay. This statistical parameter indicates the suitability of a given assay for high throughput screening. The z-value in a word describes the likelihood of a single point hit not to be false positive. The z value is a number lower than or equal to one. Values above 0.5 indicate a robust assay. Values below 0.5 but above 0 indicate an assay that probably needs to be run in duplicate. Negative values indicate assays whose predictability is very low. Z values are usually determined in a high density format plate usually a 96 well plate in manual conditions or a 384-1536 plate format in automated liquid handling environment. Z value determination has been performed using half area 96 well plates in manual mode. […]
# C6 cells = assay: Cell viability / gliotoxicity in C6; type: cell-based; settings: for C6 death relative to astrocytes: cytoplasmic exosaminidase; for inhibition of XTT conversion compared with astrocytes: C6, 24 hours of treatment
# Procedure: as §1, §2
# In order to verify how the hypersensitivity of this signaling pathway in glioma cells affects the survival of the cells, viability assessments were performed using at least three unrelated biochemical tests. Initially, a commercially available kit (Cell Titer Glow) was used in the high throughput screening center for cytotoxicity screening. This test is amenable to high throughput screening techniques and, therefore, can be used for follow up of selected compounds in high or medium throughput settings. […] Since, THAP inhibits SERCA, an ATPase, and it can affect ATP levels directly the effect of THAP and TUN on these 3 cells types was also assessed using a commercially available kit that assesses metatetrazolium salts conversion (XTT). XTT assesses cell viability by probing mitochondrial integrity. […] Finally, viability of U87-MG was also assessed using a system measuring the activity of a house keeping cytosolic enzyme involved in glucose metabolism. Also using this detection system it was evident that glioma cells both C6 and U87-MG were greatly affected by induction of ERSR (FIG. 13). It is well known that prolonged ERSR leads to apoptosis, even in the presence of elevated GRP78 expression if that is coupled to significant protein unfolding. In rat cells this process is actuated via caspase 12 and ultimately via caspase 3 activation. Experiments were conducted in order to determine if the observed effect on cell viability was also paralleled by caspase 12 activation, and if there were differences, as indicated by preliminary viability data, between normal and glioma cells.
# GRP78 = GRP78 protein expression in U87-MG; type: cell-based, human; settings: brief exposure (8 h), FIG. 11
# Procedure: Cells were treated as specified in the graph labeling. It is evident that glioma cells have enhanced GRP78 expression than astrocytes regardless of the challenging agent. N.T.=untreated; D=DMSO; T=TUN; Th=THAP.
# Also it has been speculated that the increased higher constitutive expression in glioma cells determines their resilience to the hostile growth environment, to pharmacological treatment and to radiotherapy. However, these studies were performed comparing human astrocytes from repositories to several human malignant cell lines both commercially available or from patients. […] Therefore, in light of the preliminary observations, experiments were conducted in order to further investigate the phenomenon with the aim to better understand it. Experiments were performed using primary rat astrocytes and their glioma counterpart, the C6 cells; also, human glioma cells, such as U87-MG, were used. The latter have been widely used in assessing human glioma properties. Unstimulated expression levels of GRP78 were compared in these cells. In FIG. 11 it is possible to view that unstimulated GRP78 expression in these three cell types is very low.
# [1] = same concentration range as GRP78-luc increase
Molecule,"cytotoxicity compared with astrocytes (Cell Titer Glow, ATP content) (U87-MG cells)",GRP78 promoter driven luciferase (GRP78-luc) expression (GRP78 promoter),"cytotoxicity compared with astrocytes (Cell Titer Glow, ATP content) (C6 cells)",C6 death relative to astrocytes (C6 cells; 24 h) [folds],C6 death relative to astrocytes (C6 cells; 48 h) [folds],inhibition of XTT conversion compared with astrocytes (C6 cells),GRP78 expression in U87-MG after challenge (GRP78),gliotoxicity in U87-MG (U87-MG cells; [1]),"concentration up to which GRP78-luc expression increased, after which the toxic effect was preponderant (GRP78 promoter)","hit in Prestwick library screening (value above average of negative controls + 3 SD) (GRP78 promoter; 2 μM, 5000 cells/well, read after 16 h)",gliotoxicity in C6 (C6 cells; [1]),"cytotoxicity compared with astrocytes (Cell Titer Glow, ATP content) (U87-MG cells; U87-MG, 48 hours)","cytotoxicity compared with astrocytes (Cell Titer Glow, ATP content) (C6 cells; C6, 48 hours)"
"C/C=C(/C)C(=O)O[C@H]1C(C)=C2[C@H]([C@@H]1OC(=O)CCCCCCC)[C@@](C)(OC(C)=O)C[C@H](OC(=O)CCC)[C@@]1(O)[C@H]2OC(=O)[C@@]1(C)O [THAP, thapsigargin]",significantly higher cytotoxicity,increase of luciferase expression; also recorded: concentration dependent increase,significantly higher cytotoxicity,3,5,significantly higher inhibition of XTT conversion than astrocytes,enhanced significantly,,,,,,
CCN(CC)CCCC(C)Nc1c2ccc(Cl)cc2nc2ccc(OC)cc12 (stereo not drawn) [quinacrine],,,,,,,,killed very effectively,up to 10 μM,potentially attractive lead compounds,killed very effectively,,
tunicamycin,,increase of luciferase expression; also recorded: concentration dependent increase,,3,5,significantly higher inhibition of XTT conversion than astrocytes,enhanced significantly,,,,,significantly higher cytotoxicity,significantly higher cytotoxicity

# Source: US20110060000A1, “ACRIDINE ANALOGS IN THE TREATMENT OF GLIOMAS” (priority 2009, published 2011)
